According to PubChem BioAssay (NCI):
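Growth conditions: 96-well plates. Treatment: test compound, 48 hours, 5 concentrations. Analysis: linear interpolation between bracketing concentrations; unreached endpoints set to highest concentration. TGI is the concentration that stops growth completely.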

Key:
Assay in all cases: inhibition of tumour cell growth, NCI panel, 48 h
[1] = tested on: SW-620 colon
[2] = tested on: CAKI-1 renal
[3] = tested on: UO-31 renal
[4] = tested on: SK-MEL-28 melanoma
[5] = tested on: OVCAR-5 ovarian
[6] = tested on: HCT-116 colon
[7] = tested on: SF-295 CNS
[8] = tested on: NCI-H226 lung
[9] = tested on: KM12 colon
[10] = tested on: SK-MEL-2 melanoma
[11] = tested on: HOP-92 NSCLC
[12] = tested on: HOP-62 NSCLC
[13] = tested on: OVCAR-3 ovarian
[14] = tested on: COLO 205 colon
[15] = tested on: IGROV1 ovarian
[16] = tested on: A498 renal
[17] = tested on: M14 melanoma
[18] = tested on: K-562 leukemia
[19] = tested on: 786-0 renal
[20] = tested on: ACHN renal

| Compound | TGI [1] | TGI [2] | TGI [3] | TGI [4] | TGI [5] | TGI [6] | TGI [7] | TGI [8] | TGI [9] | TGI [10] | TGI [11] | TGI [12] | TGI [13] | TGI [14] | TGI [15] | TGI [16] | TGI [17] | TGI [18] | TGI [19] | TGI [20] |
| --- | --- | --- | --- | --- | --- | --- | --- | --- | --- | --- | --- | --- | --- | --- | --- | --- | --- | --- | --- | --- |
| COC(=O)C1(c2ccc(N(C)C)cc2OC)CCCN(C(=O)Oc2ccccc2[N+](=O)[O-])CCc2c1[nH]c1ccccc21 (configuration not stated) | > 100 µM | > 100 µM | > 100 µM | > 100 µM | > 100 µM | > 100 µM | > 100 µM | > 100 µM | > 100 µM | > 100 µM | > 100 µM | > 100 µM | > 100 µM | > 100 µM | > 100 µM | > 100 µM | > 100 µM | > 100 µM | – | – |
| C1=C2C3=[N+](CCCC3)CC2Cc2ccsc21 (configuration not stated) | > 100 µM | > 100 µM | > 100 µM | > 100 µM | > 100 µM | > 100 µM | > 100 µM | > 100 µM | > 100 µM | > 100 µM | > 100 µM | > 100 µM | > 100 µM | > 100 µM | > 100 µM | > 100 µM | > 100 µM | > 100 µM | > 100 µM | > 100 µM |
| CC[N+](C)(CC)Cc1ccccc1[N+](=O)[O-] | > 100 µM | > 100 µM | > 100 µM | > 100 µM | > 100 µM | > 100 µM | > 100 µM | > 100 µM | > 100 µM | > 100 µM | > 100 µM | > 100 µM | 73.7 µM | > 100 µM | > 100 µM | > 100 µM | > 100 µM | > 100 µM | > 100 µM | > 100 µM |
| COc1ccc2c(c1)CCCc1cn[nH]c1-2 | > 100 µM | > 100 µM | > 100 µM | > 100 µM | > 100 µM | > 100 µM | > 100 µM | > 100 µM | > 100 µM | > 100 µM | > 100 µM | > 100 µM | > 100 µM | > 100 µM | > 100 µM | > 100 µM | – | > 100 µM | – | – |
| C[N+](C)(N)CCC[N+](C)(C)N | > 100 µM | > 100 µM | > 100 µM | > 100 µM | > 100 µM | > 100 µM | > 100 µM | > 100 µM | > 100 µM | > 100 µM | > 100 µM | > 100 µM | > 100 µM | > 100 µM | > 100 µM | > 100 µM | > 100 µM | > 100 µM | > 100 µM | > 100 µM |
| O=C(NCCCNC(=O)c1ccc2cc(O)c(O)cc2c1)c1ccc2cc(O)c(O)cc2c1 | > 100 µM | > 100 µM | > 100 µM | > 100 µM | > 100 µM | > 100 µM | – | 57.8 µM | > 100 µM | 34 µM | 48 µM | > 100 µM | – | > 100 µM | > 100 µM | > 100 µM | > 100 µM | > 100 µM | – | > 100 µM |
| Cc1cc(C)cc(Nc2nnc3n2S(=O)(=O)c2cc(C#N)c(Cl)cc2S3)c1 | 4.86 µM | 12.6 µM | 17 µM | 14.2 µM | 9.55 µM | 6.37 µM | 9.2 µM | 26.1 µM | 4.46 µM | 19.5 µM | – | 9.25 µM | 3.34 µM | 34.6 µM | 1.68 µM | 31.4 µM | 28.2 µM | > 100 µM | > 100 µM | 10.7 µM |
| C=C1CC[C@@]2(OC1)OC1C[C@H]3[C@@H]4CC=C5C[C@@H](O)CC(OC6OCC(OC(=O)[C@@H](O)[C@@H](C)CC)C(OC(C)=O)C6OC6OC(C)C(O)C(O)C6O)[C@]5(C)[C@H]4CC[C@]3(C)C1[C@@H]2C (some centres not stated) | 4.51 µM | 7.85 µM | 4.56 µM | 4.58 µM | 4.89 µM | 3.06 µM | 3.27 µM | 6.01 µM | 5.13 µM | 3.11 µM | > 10 µM | – | 3.77 µM | 4.5 µM | 7.79 µM | 3.44 µM | 4.45 µM | 4.71 µM | 3.27 µM | 5.93 µM |
| CCSc1nc(N2CCOCC2)c2cn[nH]c2n1 | > 100 µM | > 100 µM | > 100 µM | > 100 µM | > 100 µM | > 100 µM | > 100 µM | > 100 µM | > 100 µM | > 100 µM | > 100 µM | > 100 µM | > 100 µM | > 100 µM | > 100 µM | 15.9 µM | > 100 µM | > 100 µM | > 100 µM | > 100 µM |
| CC(=O)[C@]1(O)Cc2c(O)c3c(c(O)c2C(OC2OC(C)C(O)C(O)C2F)C1)C(=O)c1ccccc1C3=O (some centres not stated) | – | – | 0.0279 µM | 2.7 µM | 1.31 µM | 6.83 µM | 0.324 µM | 0.341 µM | 5.64 µM | 2.88 µM | 3.92 µM | 0.629 µM | 6.64 µM | 3.47 µM | 24.9 µM | 0.398 µM | 1.55 µM | 1.25 µM | > 37.1 µM | – |
| Cc1ccc2nc3ccccc3c(C3C4C(=O)N(c5ccc(Br)cc5Cl)C(=O)C4ON3C(C(N)=O)c3ccccc3)c2c1 (configuration not stated) | > 25 µM | 10.5 µM | 12.9 µM | > 25 µM | > 25 µM | > 25 µM | > 25 µM | > 25 µM | > 25 µM | > 25 µM | > 25 µM | > 25 µM | > 25 µM | > 25 µM | > 25 µM | > 25 µM | > 25 µM | > 25 µM | > 25 µM | 15.3 µM |
